# Reference: patent publication US8558002B2, “Sulfoximines as kinase inhibitors” (Allergan, Inc., priority 2006, dated 2013)
# How the values were obtained:
# VEGFR1 = VEGFR1 (Homo sapiens, UniProt P17948); assay: VEGFR1 Kinase; assay type: biochemical
# PDGFRβ = molecular target: T1, PDGFRβ (Homo sapiens, UniProt P09619); assay: PDGFRβ Kinase Assay (poly-Glu-Tyr ELISA); assay type: biochemical; details: purified cytoplasmic domain PDGFR-b protein, 36 μM ATP
# T1 construct: 200-300 ng purified cytoplasmic domain PDGFR-b protein (Millipore); purchased Millipore
# T1 sequence (P09619 554-1106 limits assumed): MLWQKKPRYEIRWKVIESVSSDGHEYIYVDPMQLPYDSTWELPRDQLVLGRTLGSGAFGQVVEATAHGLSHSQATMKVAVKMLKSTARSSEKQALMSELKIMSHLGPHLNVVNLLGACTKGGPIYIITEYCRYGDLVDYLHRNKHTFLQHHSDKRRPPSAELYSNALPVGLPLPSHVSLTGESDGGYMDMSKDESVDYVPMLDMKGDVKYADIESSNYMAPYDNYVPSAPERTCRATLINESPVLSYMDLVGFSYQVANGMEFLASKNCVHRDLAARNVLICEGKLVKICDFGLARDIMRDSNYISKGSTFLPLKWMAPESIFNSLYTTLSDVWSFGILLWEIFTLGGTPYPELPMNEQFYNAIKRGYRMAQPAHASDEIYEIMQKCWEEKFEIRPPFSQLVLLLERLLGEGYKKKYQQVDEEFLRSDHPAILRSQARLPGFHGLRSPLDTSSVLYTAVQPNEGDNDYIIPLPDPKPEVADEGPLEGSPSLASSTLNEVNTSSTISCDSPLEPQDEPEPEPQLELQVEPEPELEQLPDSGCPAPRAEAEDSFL
# Protocol: Biochemical PDGFRβ kinase assays were performed in 96 well microtiter plates that were coated overnight with 75 μg of poly-Glu-Tyr (4:1) in 10 mM Phosphate Buffered Saline (PBS), pH 7.4. The coated plates were washed with 2 mls per well PBS+0.05% Tween-20 (PBS-T), blocked by incubation with PBS containing 1% BSA, then washed with 2 mls per well PBS-T prior to starting the reaction. Reactions were carried out in 100 μL reaction volumes containing 36 μM ATP in kinase buffer (50 mM Hepes buffer pH 7.4, 20 mM MgCl2, 0.1 mM MnCl2 and 0.2 mM Na3VO4). Test compounds were reconstituted in 100% DMSO and added to the reaction to give a final DMSO concentration of 5%. Reactions were initiated by the addition 20 ul per well of kinase buffer containing 200-300 ng purified cytoplasmic domain PDGFR-b protein (Millipore). Following a 60 minute incubation at 30° C., the reactions were washed 2 mls per well PBS-T. […] of a monoclonal anti-phosphotyrosine antibody-peroxidase conjugate diluted 1:10,000 in PBS-T was added to the wells for 30 minutes. Following a 2 mls per well wash with PBS-Tween-20, 100 μl of O-Phenylenediamine Dihydrochloride in phosphate-citrate buffer, containing urea hydrogen peroxide, was added to the wells for 7-10 minutes as a colorimetric substrate for the peroxidase. The reaction was terminated by the addition of 100 μl of 2.5N H2SO4 to each well and read using a microplate ELISA reader set at 492 nm. IC50 values for compound inhibition were calculated directly from graphs of optical density (arbitrary units) versus compound concentration following subtraction of blank values.
# VEGFR2 [1] = molecular target: T2, VEGFR2 (Homo sapiens, UniProt P35968); assay: VEGFR2 Cellular Assay (FLIPR, VEGF induced increases in intracellular calcium in HUVEC); assay type: cell-based; set-up: host or cells: HUVEC; details: VEGF165 stimulation (10 ng/mL), Fluo-4
# Protocol: Automated FLIPR (Fluorometric Imaging Plate Reader) technology was used to screen for inhibitors of VEGF induced increases in intracellular calcium levels in fluorescent dye loaded endothelial cells. HUVEC (human umbilical vein endothelial cells) (Clonetics) were seeded in 384-well fibronectin coated black-walled plates overnight @ 37° C./5% CO2. Cells were loaded with calcium indicator Fluo-4 for 45 minutes at 37° C. Cells were washed 2 times (El×405, Biotek Instruments) to remove extracellular dye. For screening, cells were pre-incubated with test agents for 30 minutes, at a single concentration (10 uM) or at concentrations ranging from 0.0001 to 10.0 uM followed by VEGF165 stimulation (10 ng/mL). Changes in fluorescence at 516 nm were measured simultaneously in all 384 wells using a cooled CCD camera. Data were generated by determining max-min fluorescence levels for unstimulated, stimulated, and drug treated samples. IC50 values for test compounds were calculated from % inhibition of VEGF stimulated responses in the absence of inhibitor.
# Target sequence in this assay (P35968 20-1356): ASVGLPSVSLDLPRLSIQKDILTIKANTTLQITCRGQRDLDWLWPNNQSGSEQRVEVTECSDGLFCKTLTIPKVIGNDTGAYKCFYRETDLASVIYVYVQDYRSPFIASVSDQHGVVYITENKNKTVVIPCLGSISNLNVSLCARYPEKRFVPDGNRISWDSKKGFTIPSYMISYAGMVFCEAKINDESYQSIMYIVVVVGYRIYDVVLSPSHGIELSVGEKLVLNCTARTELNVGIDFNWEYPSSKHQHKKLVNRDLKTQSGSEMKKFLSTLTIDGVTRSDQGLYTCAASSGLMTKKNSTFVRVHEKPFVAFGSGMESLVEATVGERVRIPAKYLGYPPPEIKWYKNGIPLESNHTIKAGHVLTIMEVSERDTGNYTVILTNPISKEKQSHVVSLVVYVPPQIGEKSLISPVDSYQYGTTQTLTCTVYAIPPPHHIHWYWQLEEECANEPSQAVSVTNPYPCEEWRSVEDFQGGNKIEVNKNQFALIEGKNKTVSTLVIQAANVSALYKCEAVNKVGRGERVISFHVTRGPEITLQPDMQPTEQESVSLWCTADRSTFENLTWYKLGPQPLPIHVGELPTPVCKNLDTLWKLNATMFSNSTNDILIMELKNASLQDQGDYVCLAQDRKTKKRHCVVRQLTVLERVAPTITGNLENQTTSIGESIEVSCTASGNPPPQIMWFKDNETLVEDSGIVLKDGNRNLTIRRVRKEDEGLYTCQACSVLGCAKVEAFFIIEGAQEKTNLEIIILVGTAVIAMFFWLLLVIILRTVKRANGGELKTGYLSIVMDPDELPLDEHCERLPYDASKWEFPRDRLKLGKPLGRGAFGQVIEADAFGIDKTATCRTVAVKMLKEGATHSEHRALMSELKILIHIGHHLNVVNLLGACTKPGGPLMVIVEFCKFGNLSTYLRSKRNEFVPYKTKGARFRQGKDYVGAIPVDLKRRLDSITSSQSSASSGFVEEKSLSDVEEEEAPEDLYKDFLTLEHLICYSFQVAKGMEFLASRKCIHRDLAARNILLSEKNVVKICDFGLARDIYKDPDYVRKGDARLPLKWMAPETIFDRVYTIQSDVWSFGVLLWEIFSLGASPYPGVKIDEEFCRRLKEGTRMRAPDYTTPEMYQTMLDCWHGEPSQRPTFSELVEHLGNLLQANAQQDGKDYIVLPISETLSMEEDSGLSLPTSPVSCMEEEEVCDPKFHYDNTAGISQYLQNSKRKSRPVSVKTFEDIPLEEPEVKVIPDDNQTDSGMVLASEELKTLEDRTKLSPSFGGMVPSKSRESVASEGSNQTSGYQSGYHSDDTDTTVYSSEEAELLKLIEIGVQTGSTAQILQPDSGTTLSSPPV
# VEGFR2 [2] = molecular target: T2, VEGFR2; assay: VEGFR2 Kinase Assay (biochemical KDR kinase, poly-Glu-Tyr ELISA); set-up: 200-300 ng purified cytoplasmic domain KDR protein; purchased BPS Bioscience; details: purified cytoplasmic domain KDR protein, 2.7 μM ATP
# Protocol: Biochemical KDR kinase assays were performed in 96 well microtiter plates that were coated overnight with 75 μg/well of poly-Glu-Tyr (4:1) in 10 mM Phosphate Buffered Saline (PBS), pH 7.4. The coated plates were washed with 2 mls per well PBS+0.05% Tween-20 (PBS-T), blocked by incubation with PBS containing 1% BSA, then washed with 2 mls per well PBS-T prior to starting the reaction. Reactions were carried out in […] reaction volumes containing 2.7 μM ATP in kinase buffer (50 mM Hepes buffer pH 7.4, 20 mM MgCl2, 0.1 mM MnCl2 and 0.2 mM Na3VO4). Test compounds were reconstituted in 100% DMSO and added to the reaction to give a final DMSO concentration of 5%. Reactions were initiated by the addition 20 ul per well of kinase buffer containing 200-300 ng purified cytoplasmic domain KDR protein (BPS Bioscience, San Diego, Calif.). Following a 15 minute incubation at 30° C., the reactions were washed 2 mls per well PBS-T. 100 μl of a monoclonal anti-phosphotyrosine antibody-peroxidase conjugate diluted 1:10,000 in PBS-T was added to the wells for 30 minutes. Following a 2 mls per well wash with PBS-Tween-20, 100 μl of O-Phenylenediamine Dihydrochloride in phosphate-citrate buffer, containing urea hydrogen peroxide, was added to the wells for 7-10 minutes as a colorimetric substrate for the peroxidase. The reaction was terminated by the addition of 100 μl of 2.5NH2SO4 to each well and read using a microplate ELISA reader set at 492 nm. IC50 values for compound inhibition were calculated directly from graphs of optical density (arbitrary units) versus compound concentration following subtraction of blank values.
# Target sequence in this assay (P35968 786-1356 limits assumed): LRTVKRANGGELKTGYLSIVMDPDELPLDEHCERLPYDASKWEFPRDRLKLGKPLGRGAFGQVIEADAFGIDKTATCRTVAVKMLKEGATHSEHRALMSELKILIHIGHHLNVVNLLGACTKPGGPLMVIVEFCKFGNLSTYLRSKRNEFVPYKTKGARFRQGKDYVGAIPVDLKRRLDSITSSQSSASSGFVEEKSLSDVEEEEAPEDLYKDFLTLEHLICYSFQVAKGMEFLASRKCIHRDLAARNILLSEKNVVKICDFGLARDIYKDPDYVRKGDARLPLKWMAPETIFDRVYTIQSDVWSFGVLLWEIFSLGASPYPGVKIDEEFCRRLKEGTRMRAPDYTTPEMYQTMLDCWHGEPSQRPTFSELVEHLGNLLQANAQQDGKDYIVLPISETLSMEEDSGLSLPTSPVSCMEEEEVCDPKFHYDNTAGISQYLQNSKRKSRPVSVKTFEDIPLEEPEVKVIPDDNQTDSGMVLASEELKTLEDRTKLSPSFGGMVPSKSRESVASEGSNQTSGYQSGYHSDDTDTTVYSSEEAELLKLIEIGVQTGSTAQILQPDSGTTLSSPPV
# VEGFR1, sequence (P17948 27-1338, species assumed): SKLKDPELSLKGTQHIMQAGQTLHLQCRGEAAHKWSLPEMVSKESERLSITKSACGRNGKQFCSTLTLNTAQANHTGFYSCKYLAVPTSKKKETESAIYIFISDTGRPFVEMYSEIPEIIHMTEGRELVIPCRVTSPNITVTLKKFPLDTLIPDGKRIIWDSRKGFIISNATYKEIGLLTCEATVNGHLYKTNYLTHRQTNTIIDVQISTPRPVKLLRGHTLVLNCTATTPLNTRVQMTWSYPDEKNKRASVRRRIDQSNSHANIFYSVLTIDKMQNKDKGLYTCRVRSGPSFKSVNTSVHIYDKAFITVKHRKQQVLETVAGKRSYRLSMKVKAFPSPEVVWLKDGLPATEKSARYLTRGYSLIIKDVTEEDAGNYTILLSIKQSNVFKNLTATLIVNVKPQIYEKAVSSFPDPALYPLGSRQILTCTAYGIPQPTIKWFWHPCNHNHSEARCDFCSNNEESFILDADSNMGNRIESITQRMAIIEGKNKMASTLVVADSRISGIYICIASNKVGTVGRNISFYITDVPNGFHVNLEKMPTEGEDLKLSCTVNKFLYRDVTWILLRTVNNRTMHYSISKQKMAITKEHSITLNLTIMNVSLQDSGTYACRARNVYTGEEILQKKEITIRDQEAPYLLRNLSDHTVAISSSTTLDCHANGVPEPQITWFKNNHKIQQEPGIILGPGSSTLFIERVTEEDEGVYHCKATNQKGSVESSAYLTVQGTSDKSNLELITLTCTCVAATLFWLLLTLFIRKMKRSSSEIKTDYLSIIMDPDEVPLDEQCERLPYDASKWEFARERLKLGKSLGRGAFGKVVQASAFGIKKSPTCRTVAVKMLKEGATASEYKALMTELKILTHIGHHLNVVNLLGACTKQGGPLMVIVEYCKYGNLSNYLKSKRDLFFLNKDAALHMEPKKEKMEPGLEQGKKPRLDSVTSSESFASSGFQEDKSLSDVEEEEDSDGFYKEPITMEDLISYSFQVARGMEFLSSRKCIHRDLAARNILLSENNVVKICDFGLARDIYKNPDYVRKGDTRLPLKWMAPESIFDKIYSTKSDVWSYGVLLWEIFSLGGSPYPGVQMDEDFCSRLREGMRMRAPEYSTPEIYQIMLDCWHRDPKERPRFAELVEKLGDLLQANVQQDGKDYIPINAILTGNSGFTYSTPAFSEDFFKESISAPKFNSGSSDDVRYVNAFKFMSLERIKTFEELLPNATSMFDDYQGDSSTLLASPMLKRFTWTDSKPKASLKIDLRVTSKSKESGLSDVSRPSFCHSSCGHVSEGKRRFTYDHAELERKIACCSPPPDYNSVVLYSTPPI
IC50 (VEGFR1),IC50 (PDGFRβ),IC50 (VEGFR2 [1]),IC50 (VEGFR2 [2]),SMILES
10 nM,176 nM,3 nM,3 nM,"COC(=O)CCCCS(=O)(CCCCC(=O)OC)=NC(=O)c1cnc(N)c(C#Cc2cccc(NC(=O)c3occc3C)c2)c1 [Example 2, Dimethyl 5,5′-(N-{[6-amino-5-({3-[(3-methyl-2-furoyl)amino]phenyl}ethynyl)pyridin-3-yl]carbonyl}sulfonimidoyl)dipentanoate]"
13 nM,29 nM,49 nM,11 nM,"COC(=O)CCCCS(=O)(CCCCC(=O)OC)=NC(=O)c1cnc(N)c(C#Cc2cccc(NC(=O)c3cc(C)ccc3F)c2)c1 [Example 7, Dimethyl 5,5′-(N-{[6-amino-5-({3-[(2-fluoro-5-methylbenzoyl)amino]phenyl}ethynyl)pyridin-3-yl]carbonyl}sulfonimidoyl)dipentanoate]"
14 nM,50 nM,< 1 nM,11 nM,"COC(=O)CCCCS(=O)(CCCCC(=O)OC)=NC(=O)c1cnc(N)c(C#Cc2cccc(C(=O)Nc3cc(C)ccc3F)c2)c1 [Example 14, Dimethyl 5,5′-[N-({6-amino-5-[(3-{[(2-fluoro-5-methylphenyl)amino]carbonyl}phenyl)ethynyl]pyridin-3-yl}carbonyl)sulfonimidoyl]dipentanoate]"
,21 nM,1 nM,11 nM,COC(=O)CCCCS(=O)(CCCCC(=O)OC)=NC(=O)c1cnc(N)c(C#Cc2cccc(NC(=O)c3cccc(Cl)c3)c2)c1 [Example 6]

# Further lines, the compound ahead of its results:
SMILES,IC50 (VEGFR1),IC50 (PDGFRβ),IC50 (VEGFR2 [1]),IC50 (VEGFR2 [2])
"COC(=O)CCCCS(=O)(CCCCC(=O)OC)=NC(=O)c1cnc(N)c(C#Cc2ccc(NC(=O)Nc3cc(C)ccc3F)cc2)c1 [Example 19, Dimethyl 5,5′-{N-[(6-amino-5-{[4-({[(2-fluoro-5-methylphenyl)amino]carbonyl}amino)phenyl]ethynyl}pyridin-3-yl)carbonyl]sulfonimidoyl}dipentanoate]",23 nM,20 nM,5 nM,13 nM
"COC(=O)CCCCS(=O)(CCCCC(=O)OC)=NC(=O)c1cnc(N)c(C#Cc2cccc(C(=O)Nc3ccc(Cl)c(C(F)(F)F)c3)c2)c1 [Example 17, Dimethyl 5,5′-{N-[(6-amino-5-{[3-({[4-chloro-3-(trifluoromethyl)phenyl]amino}carbonyl)phenyl]ethynyl}pyridin-3-yl)carbonyl]sulfonimidoyl}dipentanoate]",32 nM,36 nM,,37 nM
"COC(=O)CCCCS(=O)(CCCCC(=O)OC)=NC(=O)c1cnc(N)c(C#Cc2cccc(C(=O)Nc3cc(C(C)(C)C)on3)c2)c1 [Example 16, Dimethyl 5,5′-[N-({6-amino-5-[(3-{[(5-tert-butylisoxazol-3-yl)amino]carbonyl}phenyl)ethynyl]pyridin-3-yl}carbonyl)sulfonimidoyl]dipentanoate]",27 nM,20 nM,,28 nM
"COC(=O)CCCCS(=O)(CCCCC(=O)OC)=NC(=O)c1cnc(N)c(C#Cc2cccc(C(=O)Nc3cccc(OC)c3)c2)c1 [Example 11, Dimethyl 5,5′-[N-({6-amino-5-[(3-{[(3-methoxyphenyl)amino]carbonyl}phenyl)ethynyl]pyridin-3-yl}carbonyl)sulfonimidoyl]dipentanoate]",,38 nM,2 nM,4 nM
